{"source": "patent US9494524B2", "about": "“Assay for analytes based on aggregation” (priority 2010, dated 2016)", "key": {"[1]": {"tested_on": "Phospholipase A2 from Naja mossambica mossambica", "assay_type": "biochemical", "conditions": "in the presence of PLA2 and EDTA, room temperature (FIG. 3A)", "method": "(§1) Methodology: Mixed solutions of 20 nm JR2EC-functionalised gold nanoparticles and 100 nm JR2KC2-loaded liposomes were prepared in accordance with Example 1. Absorption spectra were measured for the solutions under various solution conditions, as discussed below.\n(§2) Methodology: JR2KC2 loaded liposomes, carboxyfluorescein (CF)-loaded liposomes and JR2EC-functionalised gold nanoparticles were prepared as described in Example 1. A mixture of PLA2 and chlorpromazine was added to the suspensions of liposomes. The assay response was recorded spectroscopically (in the UV-visible range) after incubating various concentrations of chlorpromazine with PLA2 (7 nM), functionalized gold nanoparticles (0.1 nM) and liposomes (1.4 nM) for 10 minutes at 37° C. For JR2KC2-loaded liposomes, the assay response was measured spectroscopically (in the UV-visible range) by recording spectra in the range 400-800 nm with 2 minute intervals using a Perkin Elmer Lambda 25 Spectrophotometer, and then extracting Δλmax.\n(§3) This value was obtained by fitting the data to the monophasic Hill equation: […]"}, "[2]": {"biological_target": "T1, Phospholipase A2 from Naja mossambica mossambica", "T1 construct": "IC50; other: CF-loaded liposomes, PLA2 7 nM, 37° C; other: PLA2 7 nM, gold nanoparticles 0.1 nM, liposomes 1.4 nM, 10 minutes at 37° C., Hill fit of Δλmax; lag time", "assay": "traditional carboxyfluorescein (CF)-based fluorescence assay with CF-loaded liposomes", "assay_type": "biochemical", "conditions": "PLA2 7 nM, 37° C.", "method": "Carboxyfluorescein-loaded liposomes were prepared similarly, except that the rehydration solution was 50 mM CF, 20 mM phosphate, adjusted to pH 7 with NaOH. The untrapped dye was removed by filtration on a Sephadex G-25 column with PBS as eluent. The total lipid concentration in all samples was determined using the Stewart assay.^21\nMethodology: Liposomes containing 50 mM of carboxyfluorescein were prepared as described in Example 1. The final lipid concentration in the sample was 30 μg/ml. The liposomes were incubated with solutions of PLA2 at a variety of concentrations for 30 minutes. Experiments were performed on a Perkin Elmer fluorimeter with an excitation wavelength of 490 nm and an emission wavelength of 520 nm. […]\nas §2, with “A mixture of PLA2 and chlorpromazine was added to the suspensions of liposomes.” left out"}, "[3]": {"tested_on": "T1, Phospholipase A2 from Naja mossambica mossambica", "assay_type": "biochemical", "method": "as §1, §2, §3"}, "[4]": {"tested_on": "PLA2", "conditions": "literature values; read-out: IC50 previously reported; cited from earlier work"}}, "note": "Read-outs that look alike come from different tables or passages of the source."}
{"molecule": "O=C(O)CN(CCN(CC(=O)O)CC(=O)O)CC(=O)O", "note": "[EDTA, ethylenediaminetetraacetic acid]", "values": [{"measurement": "effect on PLA2-induced nanoparticle aggregation", "setting": "[1]", "value": "prevented aggregation"}]}
{"molecule": "CN(C)CCCN1c2ccccc2Sc2ccc(Cl)cc21", "note": "[chlorpromazine]", "values": [{"measurement": "IC50", "setting": "[2]", "value": 10, "unit": "µM"}, {"measurement": "lag time", "setting": "[3]; 10 μM inhibitor, 7 nM PLA2, about 5 minutes without the inhibitor", "value": "approximately 15 minutes"}, {"measurement": "concentration of active non-inhibited PLA2 relative to actual PLA2 concentration", "setting": "[3]; 10 μM inhibitor, read from lag time (FIG. 12b)", "value": "about half"}, {"measurement": "IC50", "setting": "[3]; PLA2 7 nM, gold nanoparticles 0.1 nM, liposomes 1.4 nM, 10 minutes at 37° C., Hill fit of Δλmax", "value": 6.5, "unit": "µM"}, {"measurement": "IC50", "setting": "[4]", "value": "10 to 100", "unit": "µM"}]}
